The assay deals with Euschistus heros (neotropical brown stink bug). The assay can be described thus: Insecticidal activity against Euschistus heros: contact/feeding activity on sprayed soybean plants. The format is in vivo. Particulars: 120 h. The method, then:
Insecticidal activity against Euschistus heros (neotropical brown stink bug): contact/feeding activity of compounds 1 and 3 according to the invention and 2 and 4 as comparison:
Two week old soybean plants were sprayed in a turn table spray chamber with the diluted spray solutions. After drying, two soybean seeds were added and plants were infested with ten N-2 nymphs of the neotropical brown stink bug Euschistus heros in plastic test boxes. Boxes were incubated in a climate chamber at 25° C. and 60% relative humidity. Evaluation is done 5 days after infestation on mortality and growth effect.

[1] abbreviates: 0.2 ppm spray, N-2 nymphs on soybean plants, evaluation 5 days after infestation, read-out: Mortality (%).
Where [2] appears, read: 0.8 ppm spray, N-2 nymphs on soybean plants, evaluation 5 days after infestation, read-out: Mortality (%).
Setting [3] is: 3 ppm spray, N-2 nymphs on soybean plants, evaluation 5 days after infestation, read-out: Mortality (%).

Read-outs that look alike come from different tables or passages of the source.

As for `Cn1nc(C(F)(F)C(F)(F)F)c(C(F)(F)F)c1-n1cc(-c2ccc(Cl)c(C(=O)NC3CC3)c2)nn1` [Compound 2, reference compound], the mortality at 0.0125 ppm (0.0125 ppm spray, N-2 nymphs on soybean plants, evaluation 5 days after infestation, read-out: Mortality (%)) came out at 0%. Besides, where the note is “0.05 ppm spray, N-2 nymphs on soybean plants, evaluation 5 days after infestation, read-out: Mortality (%)”, the mortality at 0.05 ppm is 10%. Besides, the mortality at 0.2 ppm under setting [1] stood at 20%. In addition, the mortality at 0.8 ppm under setting [2] is 35%. Moreover, under setting [3], the mortality at 3 ppm is 100%.

As to `Cn1nc(C(F)(F)C(F)(F)F)c(C(F)(F)F)c1-n1cc(-c2ccc(Cl)c(C(=O)NC3(C#N)CC3)c2)nn1` [Compound 4, reference compound], the mortality at 0.2 ppm under setting [1] was determined as 0%. Besides, under setting [2], the mortality at 0.8 ppm worked out at 20%. Under setting [3], the mortality at 3 ppm came out at 95%.

In turn, `Cn1nc(C(F)(F)C(F)(F)F)c(C(F)(F)F)c1-n1cc(-c2ccc(Cl)c(C(=O)NC3CC3)c2)cn1` [Compound 1] displayed a mortality at 0.0125 ppm of 35%, a mortality at 0.05 ppm of 50%, a mortality at 0.2 ppm of 95% and a mortality at 0.8 ppm of 100%. The molecule also displayed a mortality at 3 ppm of 100%.

In turn, `Cn1nc(C(F)(F)C(F)(F)F)c(C(F)(F)F)c1-n1cc(-c2ccc(Cl)c(C(=O)NC3(C#N)CC3)c2)cn1` [Compound 3] returned a mortality at 0.0125 ppm of 15%, a mortality at 0.05 ppm of 35%, a mortality at 0.2 ppm of 95% and a mortality at 0.8 ppm of 95%. The molecule also displayed a mortality at 3 ppm of 100%.

Source of the values: patent US20180084782A1, “METHOD OF CONTROL OF STINKBUGS” (Syngenta Participations AG, priority 2015, published 2018).
